US4794113A, “Imidazolyl phenoxy compounds and method of use” (Yamanouchi Pharmaceutical Co., Ltd., priority 1983, dated 1988)

Key:
Hyperlipedemic rat = assay: Lipid Reducing Activity (cholesterol/bile acid fed hyperlipidemic rats, serum lipids); type: in vivo, male Sprague-Dawley rats; settings: 100 mg/kg/day p.o., 4 days; for HDL-C/LDL-C (cont. = 1): relative to control; for HDL-Chol** (cont. = 1): relative to control = 1
Procedure: Feed containing 1.5% cholesterol and 0.5% bile acid was given to male Sprague-Dawley rats aging 4 weeks old after birth for 7 days. A suspension of the compound of the present invention in a 0.5% aqueous methyl cellulose solution was administered daily via oral catheter for 4 days. After fastening overnight, blood was collected under ether anesthesia to determine the quantities of the total HDL and cholesterol in serum. The measurements of cholesterol and HDL were performed in accordance with the method described in Schettler, G. & Hussel; Arbetsmed. Sozialmed. Praventived., 10, 25 (1975) and the method described in T. T. Ishikawa et al.; Lipids, 11, 628 (1976), respectively.

[1] = tested on: platelet aggregation induced by arachidonic acid; assay: Platelet Aggregation Prevention Activity (arachidonic acid induced, platelet rich plasma); type: cell-based, Nippon white rabbit; settings: compound 100 μM; arachidonic acid final concentration 0.2 mM; rabbit PRP
Procedure: Platelet rich plasma (PRP) and platelet poor plasma (PPP) were prepared from venous blood of Nippon white rabbit. The platelet aggregation activity was measured in accordance with the method described in Born, G. V. R.; Nature, 194, 927 (1962) and the activity of preventing platelet agglutination of the compound against platelet aggregation induced by arachidonic acid (final concentration, 0.2 mM) was determined with an Aggrigometer (made by Payton Co.).

| SMILES | Reduction Rate of T* and Chol** (*triglyceride, **cholesterol) (Hyperlipedemic rat) | HDL-C/LDL-C (cont. = 1) (Hyperlipedemic rat) | HDL-Chol** (cont. = 1) (Hyperlipedemic rat) | Platelet Aggregation inhibition (%) A.A. [1] |
| --- | --- | --- | --- | --- |
| CCOC(=O)C(C)(C)CCCCCOc1ccc(-c2csc(-c3cccnc3)n2)cc1 [Example 2, ethyl 2,2-dimethyl-7-[p-[2-(3-pyridyl)-4-thiazolyl]phenoxy]heptanoate] | 59% | 22 | 7.62 | 16% |
| CCOC(=O)C(C)(C)CCCOc1ccc(-c2csc(C)n2)cc1 [Example 5, ethyl 5-[p-(2-methyl-4-thiazolyl)phenoxy]-2,2-dimethylpentanoate] | 69% | 8.00 | 1.54 | 50% |
| CCOC(=O)C(C)(C)CCCCOc1ccc(OCCCCCn2ccnc2)cc1 [Example 30, ethyl 6-[p-[5-(1-imidazolyl)pentyloxy]phenoxy]-2,2-dimethylhexanoate] | 48% | 5.00 | 1.78 | 57% |
| CCOC(=O)C(C)(C)CCCCOc1ccc(NC(=O)CCCn2ccnc2)cc1 [Example 35, Ethyl-6-[p-[4-(1-imidazolyl)-butyramido]phenoxy]-2,2-dimethylhexanoate] | 52% | 5.4 | 2.49 | 7% |
| CCOC(=O)C(C)(C)CCCCCOc1ccc(NC(=O)CCCCn2ccnc2)cc1 [Example 39] | 23% | 4.1 | 3.11 | 100% |
